Earlier results in EP0243248A1, “Compositions for the treatment of baldness and alopecia” (LABORATOIRES PHARMACEUTIQUES ROCHE-POSAY, priority 1986, dated 1987).

Conditions: for solubilité dans l'eau: water; for solubilité dans l'alcool: alcohol, in words; for solubilité dans les solutions alcalines / en milieu alcalin: alkaline solutions / alkaline medium

SMILES	solubilité dans l'eau	solubilité dans l'alcool	solubilité dans les solutions alcalines / en milieu alcalin	solubilité dans le chloroforme (chloroform)	solubilité dans l'ether (ether)
O=C1NC(=O)C(c2ccccc2)(c2ccccc2)N1 [Phenytoïne, diphényl-5,5 imidazolidinedione-2,4]	pratiquement insoluble	–	–	–	–
CC1=NS(=O)(=O)c2cc(Cl)ccc2N1 [diazoxyde, chloro-7 méthyl-3 benzothiadiazine 1, 2,4 dioxyde-1,1]	insolubles	solubles	solubles	–	–
O=C1NC(=O)C(c2ccccc2)(c2ccccc2)N1 [diphénylhydantoï-nate de sodium]	un peu soluble	un peu soluble	soluble	insoluble	insoluble
